From patent US20170211073A1, “ANTISENSE ANTINEOPLASTIC AGENT” (priority 2014, published 2017)
Each block holds one compound with its values, some of them ahead of it. [BNA] = bridged nucleic acid nucleotide (BNA), bridge type not specified for this compound; d = 2'-deoxy (DNA)

Legend:
YB-1 [1] = experiment: Screening of antisense oligo-nucleic acids by YB-1 expression-inhibitory ability in cancer cells (Lipofectamine RNAiMax); type: cell-based, human
pancreatic cancer cells = experiment: Proliferation by MTT assay, pancreatic cancer cells; type: cell-based; conditions: final concentration 50 nM, vs control antisense oligo-nucleic acid
Protocol: (§1) Then, pancreatic cancer and vascular endothelial cell proliferation-suppressing effects of ASO#10 (also referred to as “YB-1 ASO”, TCTcctgcaccCTGg, SEQ ID NO: 2) were examined. The cells were inoculated into wells of a 96-well plate at a density of 60% confluent, ASO#10 was introduced into the pancreatic cancer cells at a final concentration of 50 nM, and endothelial cells at a final concentration of 5 nM on the next day by using the gene transduction reagent Lipofectamine RNAiMax, and then the proliferation ability was periodically measured by the MTT assay method. […] In addition, it was also confirmed that gastric cancer and breast cancer are also knocked down by ASO#10.

[2] = tested on: vascular endothelial cells; experiment: Proliferation by MTT assay, endothelial cells; type: cell-based; conditions: final concentration 5 nM, vs control antisense oligo-nucleic acid
Protocol: as §1

HUVEC = experiment: Cell cycle analysis by PI flow cytometry, HUVEC; type: cell-based; conditions: 5 nM, 72 hours
Protocol: (§2) In order to elucidate the mechanism of the pancreatic cancer cell and endothelial cell proliferation inhibitory effect observed in Example 2, YB-1 ASO BNA (TCTcctgcaccCTGg, SEQ ID NO: 2, the parts of the capital letters in the sequence correspond to BNAs, the same shall apply to the following examples) was introduced at a concentration of 5 nM into the endothelial cells (1×10^5/well) under the same conditions as mentioned above. After 72 hours from the introduction, the cells were incubated with PI (1 μg/ml) at 37° C. for 30 minutes, and then cell cycle analysis was performed by using a flow cytometer (FACS CantoII).

HPAEC cells = experiment: Cell cycle analysis by PI flow cytometry, HPAEC; type: cell-based; conditions: 5 nM, 72 hours
Protocol: as §2

[3] = tested on: vascular endothelial HUVEC cells; experiment: Annexin V-FITC apoptosis observation; type: cell-based
CDK1 and Cyclin B1 = experiment: Protein expression of CDK1 and Cyclin B1 in HUVEC and HPAEC cells; type: cell-based; conditions: vs control antisense oligonucleotide
[4] = tested on: MiaPaCa-luc pancreatic cancer cells; experiment: Local administration into MiaPaCa-luc subcutaneous tumors, IVIS imaging; type: in vivo, nude mice; conditions: 10 μM with atelocollagen 1:1, local, once a week, total twice; vs control antisense oligo BNA
Protocol: The MiaPaCa-luc pancreatic cancer cells stably expressing luciferase were subcutaneously transplanted into the thighs of nude mice to prepare subcutaneous tumors in a size of 6 to 7 mm. A mixture of YB-1 ASO BNA (final concentration, 10 μM) and atelocollagen implant at a volume ration of 1:1 was locally administered into the tumors (once a week, total twice), and the tumor volume (luciferase activity) was evaluated over time by IVIS imaging.

[5] = tested on: SUIT2 pancreatic cancer cells; experiment: Administration of YB-1 ASO BNA into blood, SUIT2 subcutaneous tumor; type: in vivo, nude mice; conditions: 200 μg/200 μL caudal vein, once a week, total 3 times
Text: (§3) The SUIT2 pancreatic cancer cells or HCT116 large intestine cancer cells were subcutaneously transplanted into the thighs of nude mice to prepare subcutaneous tumors in a size of 6 to 7 mm. […] YB-1 ASO BNA suppressed proliferation of the tumors to a size of ¼ to ⅕ of those observed with the control antisense BNA (FIG. 5).

[6] = tested on: HCT116 large intestine cancer cells; experiment: Administration of YB-1 ASO BNA into blood, HCT116 subcutaneous tumor; type: in vivo, nude mice; conditions: 200 μg/200 μL caudal vein, once a week, total 3 times
Text: as §3

YB-1 [7] = experiment: YB-1 expression in tumor, liver, kidney after administration into blood, real-time RT-PCR; type: in vivo, nude mice; conditions: HCT116 model, 200 μg/200 μL caudal vein, once a week, total 2 times, 48 hours after final administration
Protocol: After 48 hours from the final administration, subcutaneous tumors, livers, and kidneys were extracted, RNAs were extracted, and YB-1 expression was analyzed by real-time RT-PCR.

YB-1 and CD31 = experiment: Immunostaining of YB-1 and CD31 in frozen tumor sections; type: in vivo, nude mice; conditions: HCT116 model; vs control antisense BNA
[8] = Safety of administration of YB-1 ASO BNA into blood, blood biochemical examinations
Protocol: YB-1 ASO BNA (indicated as “ASO-YBX1” in FIG. 7) at a concentration of 100 μg/200 μL or 200 μg/200 μL was administered once into the blood of nude mice from the caudal veins. After 48 hours, blood was collected, and examined by blood biochemical examinations for ALT, T-Bil, BUN, and creatinin in order to evaluate the liver and kidney functions.

[9] = General blood and biochemical examinations, mice with HCT116 sc tumor; conditions: 10 mg/kg BW i.v. once a week for three weeks, blood one week after final treatment
Protocol: (§5) Subcutaneous tumor models were created by subcutaneously transplanting gemcitabine-resistant pancreatic cancer SUIT2-GR cells and large intestine cancer HCT116 cells to the thighs of nude mice. After tumors having a volume of 50 mm^3 were formed, 10 mg/kg BW of #10AmNA YB-1 antisense was administered from the caudal veins once a week over three weeks. The tumor diameters were measured over time.

[10] = General blood and biochemical examinations, mice with Suit2-GR sc tumor; conditions: Suit2-GR sc Tumor; 10 mg/kg BW i.v. once a week for three weeks; blood one week after final treatment
Protocol: as §5

[11] = tested on: human pancreatic cancer SUIT2 cell strain, resistant strain; experiment: Gemcitabine sensitivity of gemcitabine-resistant SUIT2 strain; type: cell-based; conditions: SUIT-2
Protocol: (§4) A human pancreatic cancer SUIT2 cell strain was prepared by culturing pancreatic cancer cells resistant to the anticancer agent, gemcitabine, for a long period of time in a medium containing gemcitabine at a low concentration (IC50 value, 100 nM for the resistant strain vs. 5 nM for the parent strain). Subcutaneous tumors were prepared in the same manner as that of Example 10, and 200 μg/200 μL of YB-1 ASO AmNA or control antisense was administered into the blood according to the same protocol (once every two weeks, total 2 times).

[12] = tested on: human pancreatic cancer SUIT2 cell strain, parent strain; experiment: Gemcitabine sensitivity of SUIT2 parent strain; type: cell-based; conditions: SUIT-2
Protocol: as §4

Compound: TCTcctgcaccCTGg (TCTCCTGCACCCTGG; chemistry not fully specified) [ASO#10]
YB-1 knockdown in gastric cancer and breast cancer (YB-1 [1]): knocked down
pancreatic cancer cell proliferation inhibitory effect (pancreatic cancer cells): Significantly higher
endothelial cell proliferation inhibitory effect [2]: Significantly higher
G2/M fraction (HUVEC): 14.5%
subG1 fractionation (HUVEC): 17.7%
G2/M fraction (HPAEC cells): 14.0%
subG1 fractionation (HPAEC cells): 18.7%
Annexin V-positive cells [3]: increase in Annexin V-positive cells
expression levels of CDK1 and Cyclin B1 (CDK1 and Cyclin B1): clearly suppressed
tumor volume (luciferase activity) [4]: significant suppression
tumor size as fraction of that with control antisense BNA [5]: ¼ to ⅕
tumor size as fraction of that with control antisense BNA [6]: ¼ to ⅕
YB-1 expression in the tumors, livers, and kidneys as fraction of control antisense BNA (YB-1 [7]; listed as YB-1 ASO BNA): about ⅓
YB-1 expression in the tumors, livers, and kidneys as fraction of control antisense BNA (YB-1 [7]; listed as YB-1 antisense oligo BNA): suppresses expression of YB-1
expression of YB-1 and CD31 in tumor tissues (immunostaining) (YB-1 and CD31): reduced

Compound: CATttcgaagtACTc (antisense CATTTCGAAGTACTC; sugars from the 5' end [BNA]3 d8 [BNA]3 d1, backbone and methylation of C not given here) [control antisense oligo-BNA, reference compound]
G2/M fraction (HUVEC): 22.1%
subG1 fractionation (HUVEC): 2.0%
G2/M fraction (HPAEC cells): 28.5%
subG1 fractionation (HPAEC cells): 1.3%
Annexin V-positive cells [3]: hardly observed
ALT, T-Bil, BUN, creatinin (liver and kidney functions) ([8]; 100 μg/200 μL or 200 μg/200 μL once, caudal vein, 48 hours): any functional abnormality was not observed
liver function markers AST and T-Bil ([8]; repeatedly administered 3 times): did not show any functional abnormality

Compound: CATttcgaagtACTc (antisense CATTTCGAAGTACTC; AmNA-modified units marked by uppercase, key not given here) [Ctrl]
ALT [9]: 26 ± 3 IU/L
AST [9]: 80 ± 10 IU/L
BUN [9]: 21.2 ± 2.0 mg/dL
CRE [9]: 0.07 ± 0.03 mg/dL
HCT [9]: 35.7 ± 2.7%
HGB [9]: 13.1 ± 0.3 g/dL
PLT [9]: 136.2 ± 10.8 ×10^4/μl
RBC [9]: 715 ± 55 ×10^4/μl
T-BIL [9]: 0.06 ± 0.02 mg/dL
WBC [9]: 48 ± 8 ×10^2/μl
ALT [10]: 45 ± 19 IU/L
AST [10]: 170 ± 183 IU/L
BUN [10]: 27.9 ± 5.4 mg/dL
CRE [10]: 0.10 ± 0.03 mg/dL
HCT [10]: 38.5 ± 2.1%
HGB [10]: 12.2 ± 0.6 g/dL
PLT [10]: 100.5 ± 33.3 ×10^4/μl
RBC [10]: 779 ± 39 ×10^4/μl
T-BIL [10]: 0.03 ± 0.01 mg/dL
WBC [10]: 29 ± 12 ×10^2/μl

IC50 [11]: 100 nM
IC50 [12]: 5 nM
Compound: Nc1ccn([C@@H]2O[C@H](CO)[C@@H](O)C2(F)F)c(=O)n1 [gemcitabine]
